The record followed here is patent US20120094897A1, “NOVEL INHIBITORS OF HEPATITIS C VIRUS REPLICATION” (InterMune, Inc., priority 2010, published 2012).

For test [1], the system named is HCV sub-genomic replicon (I377/NS3-3′) in HuH-7 hepatoma cells (GS4.3). Nature of the test: Quantitation by ELISA of NPTII in the HCV sub-genomic replicon, GS4.3. The class given is cell-based. The conditions noted are these: Hepatitis C virus, GS4.3 replicon cells, 72 h incubation. As for the experimental part:
The HCV sub-genomic replicon (I377/NS3-3′, accession No. AJ242652), stably maintained in HuH-7 hepatoma cells, was created by Lohmann et al. Science 285: 110-113 (1999). The replicon-containing cell culture, designated GS4.3, was obtained from Dr. Christoph Seeger of the Institute for Cancer Research, Fox Chase Cancer Center, Philadelphia, Pa.
GS4.3 cells were maintained at 37° C., 5% CO2, in DMEM (Gibco 11965-092) supplemented with L-glutamine 200 mM (100×) (Gibco25030-081), non-essential amino acids (NEAA)(Biowhittaker 13-114E), heat-inactivated (HI) Fetal Bovine Serum(FBS)(Hyclone SH3007.03) and […] geneticin (G418)(Gibco 10131-035). Cells were sub-divided 1:3 or 4 every 2-3 days.
24 h prior to the assay, GS4.3 cells were collected, counted, and plated in 96-well plates (Costar 3585) at 7500 cells/well in 100 μL standard maintenance medium (above) and incubated in the conditions above. To initiate the assay, culture medium was removed, cells were washed once with PBS (Gibco 10010-023) and 90 μl Assay Medium (DMEM, L-glutamine, NEAA, 10% HI FBS, no G418) was added. Inhibitors were made as a 10× stock in Assay Medium, (3-fold dilutions from 10 μM to […] final concentration, final DMSO concentration 1%), 10 μL were added to duplicate wells, plates were rocked to mix, and incubated as above for 72 h.
An NPTII Elisa kit was obtained from AGDIA, Inc. (Compound direct ELISA test system for Neomycin Phosphotransferase II, PSP 73000/4800). Manufacturer's instructions were followed, with some modifications. 10×PEB-1 lysis buffer was made up to include 500 μM PMSF (Sigma P7626, 50 mM stock in isopropanol). After 72 h incubation, cells were washed once with PBS and 150 μL PEB-1 with PMSF was added per well. Plates were agitated vigorously for 15 minutes, room temperature, and then frozen at −70° C. Plates were thawed, lysates were mixed thoroughly, and 100 μL were applied to an NPTII Elisa plate. A standard curve was made. Lysate from DMSO-treated control cells was pooled, serially diluted with PEB-1 with PMSF, and applied to duplicate wells of the ELISA plate, in a range of initial lysate amount of 150 μL. In addition, 100 μL buffer alone was applied in duplicate as a blank. Plates were sealed and gently agitated at room temperature for 2 h. Following capture incubation, the plates were washed 5×300 μL with PBS-T (0.5% Tween-20, PBS-T was supplied in the ELISA kit). For detection, a 1× dilution of enzyme conjugate diluent MRS-2 (5×) was made in PBS-T, into which 1:100 dilutions of enzyme conjugates A and B were added, as per instructions. Plates were resealed, and incubated with agitation, covered, room temperature, for 2 h. The washing was then repeated and 100 μL of room temperature TMB substrate was added. After approximately 30 minutes incubation (room temperature, agitation, covered), the reaction was stopped with 50 μL 3M sulfuric acid. Plates were read at 450 nm on a Molecular Devices Versamax plate reader.
Inhibitor effect was expressed as a percentage of DMSO-treated control signal, and inhibition curves were calculated using a 4-parameter equation: y=A+4B−A)/(1+((C/x)̂D))), where C is half-maximal activity or EC50.
Background: In an ELISA, binding on a coated surface is turned into a signal by an enzyme label.

The target in test [2] is T1, HCV NS3 protease (full-length NS3/NS4A-2 complex) (Hepatitis C virus genotype 1a, UniProt P27958).
T1 construct: Recombinant E. coli or Baculovirus full-length NS3 was diluted to 3.33 μM with assay buffer; host or cells: E. coli or baculovirus (insect cells)
T1 sequence (P27958 1027-1657, one chain of several): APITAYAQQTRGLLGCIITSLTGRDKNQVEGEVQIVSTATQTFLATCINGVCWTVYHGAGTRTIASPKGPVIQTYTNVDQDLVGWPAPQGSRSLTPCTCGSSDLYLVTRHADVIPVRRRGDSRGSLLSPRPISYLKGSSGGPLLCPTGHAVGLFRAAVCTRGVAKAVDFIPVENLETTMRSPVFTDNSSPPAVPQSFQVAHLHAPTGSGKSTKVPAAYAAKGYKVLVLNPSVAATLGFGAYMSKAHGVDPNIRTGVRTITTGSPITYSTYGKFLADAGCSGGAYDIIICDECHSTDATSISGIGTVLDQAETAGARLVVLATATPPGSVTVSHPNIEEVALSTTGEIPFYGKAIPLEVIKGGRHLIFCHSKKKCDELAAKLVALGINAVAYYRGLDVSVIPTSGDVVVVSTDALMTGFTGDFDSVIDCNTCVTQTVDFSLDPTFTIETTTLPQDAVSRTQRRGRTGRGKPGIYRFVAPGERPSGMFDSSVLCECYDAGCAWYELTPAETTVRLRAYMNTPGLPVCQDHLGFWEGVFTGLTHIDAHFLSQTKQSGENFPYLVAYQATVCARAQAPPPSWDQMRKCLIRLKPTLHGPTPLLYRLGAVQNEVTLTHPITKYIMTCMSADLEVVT
Kind of test: NS3 Inhibition Assay (NS3-NS4 protease assay, RETS1 substrate). Type of test: biochemical. The conditions noted are these: NS3/NS4A-2, RETS1 substrate, 10 minutes pre-incubation. As for the experimental part: NS3 Complex Formation with NS4A-2.
Recombinant E. coli or Baculovirus full-length NS3 was diluted to 3.33 μM with assay buffer and the material was transferred to an eppendorf tube and placed in a water bath in a 4° C. refrigerator. The appropriate amount of NS4A-2 diluted to 8.3 mM in assay buffer was added to an equal the volume of NS3 above (conversion factor—3.8 mg/272 μL assay buffer). The material was transferred to an eppendorf tube and placed in water bath in a 4° C. refrigerator.
After equilibration to 4° C., equal volumes of NS3 and NS4A-2 solutions were combined in an eppendorf tube, mixed gently with a manual pipettor, and incubated for 15 minutes in the 4° C. water bath. Final concentrations in the mixture are 1.67 μM NS3, 4.15 mM NS4A-2 (2485-fold molar excess NS4A-2).
After 15 minutes at 4° C., the NS3/NS4A-2 eppendorf tube was removed and placed in a room temperature water bath for 10 minutes. NS3/NS4A-2 was aliquoted at appropriate volumes and stored at −80° C. (E. coli NS3 run at 2 nM in assay, aliquot at 25 μL. BV NS3 run at 3 nM in assay, aliquot at 30 μL).
Step a. Sample compounds were dissolved to 10 mM in DMSO then diluted to 2.5 mM (1:4) in DMSO. Typically, compounds were added to an assay plate at 2.5 mM concentration, yielding upon dilution a starting concentration of 50 μM in the assay inhibition curve. Compounds were serial diluted in assay buffer to provide test solutions at lower concentrations.
Step 1. The E. coli. NS3/NS4A-2 was diluted to 4 nM NS3 (1:417.5 of 1.67 μM stock−18 μL 1.67 μM stock+7497 μL assay buffer). The BV NS3/NS4A-2 was diluted to 6 nM NS3 (1:278.3 of 1.67 μM stock−24 μL 1.67 μM stock+6655 μL assay buffer).
Step. 2. Using the manual multichannel pipettor, and being careful not to introduce bubbles into the plate, 50 μL assay buffer was added to wells A01-H01 of a black Costar 96-well polypropylene storage plate.
Step 3. Using the manual multichannel pipettor, and being careful not to introduce bubbles into the plate, 50 μL of diluted NS3/NS4A-2 from step 1 was added to wells A02-H12 of the plate in step 2.
Step 4. Using the manual multichannel pipettor, and being careful not to introduce bubbles into the plate, 25 μL of the wells in drug dilution plate in step a was transferred to corresponding wells in assay plate in step 3. The tips on the multichannel pipettor were changed for each row of compounds transferred.
Step 5. Using the manual multichannel pipettor, and being careful not to introduce bubbles into the plate, the contents of the wells from the assay plate in step 4 were mixed by aspirating and dispensing 35 μL of the 75 μL in each well five times. The tips on multichannel pipettor were changed for each row of wells mixed.
Step 6. The plate was covered with a polystyrene plate lid, and the plate from step 5 containing NS3 protease and sample compounds was pre-incubated 10 minutes at room temperature.
While the plate from step 6 is pre-incubating, the RETS1 substrate was diluted in a 15 mL polypropylene centrifuge tube. The RETS1 substrate was diluted to 8 μM (1:80.75 of 646 μM stock−65 μL 646 μM stock+5184 μL assay buffer).
After the plate in step 6 finished pre-incubating, and using the manual multichannel, 25 μL of substrate was added to all wells on the plate. The contents of the wells of the plate were quickly mixed, as in step 5, mixing 65 μL of the 100 μL in the wells.
The plate was read in kinetic mode on the Molecular Devices SpectraMax Gemini XS plate reader. Reader settings: Read time: 30 minutes, Interval: 36 seconds, Reads: 51, Excitation λ: 335 nm, Emission λ: 495 nm, cutoff: 475 nm, Automix: off, Calibrate: once, PMT: high, Reads/well: 6, Vmax pts: 21 or 28/51 depending on length of linearity of reaction
IC50s are determined using a four parameter curve fit equation, and converted to Ki's using the following Km's: • Full-length E. coli NS3-2.03 μM • Full-length BV NS3-1.74 μM • where Ki=IC50/(1+[S]/Km))

Turning to `CC[C@@H]1C[C@@]12NC(=O)[C@@H]1C[C@H](CN1C(=O)[C@@H](NC(=O)OC(C)(C)C)C(C)(C)C)Oc1nc3c(cccc3n1C(C)C)C(=O)NCC=CCCCC1(CC1)S(=O)(=O)NC2=O` [Compound 9], the EC50 (in general, the concentration that produces a half-maximal response) in test [1] fell in the range of 10 to 100 nM. Also, the IC50 – broadly, the point on the concentration scale where inhibition reaches its midpoint – in test [2] is ≤ 10 nM.
With `CC[C@@H]1C[C@@]12NC(=O)[C@@H]1C[C@H](CN1C(=O)[C@@H](NC(=O)OC(C)(C)C)C(C)(C)C)Oc1nc3c(cccc3n1C(C)C)C(=O)NCCC=CCCC1(CC1)S(=O)(=O)NC2=O` [Compound 10], the EC50 in test [1] was ≥ 100 nM. Moreover, the IC50 in test [2] was ≤ 10 nM.
In the same order, the values of `CC[C@@H]1C[C@@]12NC(=O)[C@@H]1C[C@H](CN1C(=O)[C@@H](NC(=O)OC(C)(C)C)C(C)(C)C)Oc1nc3c(cccc3n1C(C)C)C(=O)NCCCCCCC1(CC1)S(=O)(=O)NC2=O` [Compound 11] are ≥ 100 nM and ≤ 10 nM.
In the same order, the values of `CC[C@@H]1C[C@@]12NC(=O)[C@@H]1C[C@H](CN1C(=O)[C@@H](NC(=O)OC(C)(C)C)C(C)(C)C)Oc1nc3c(cccc3n1C(C)C)C(=O)NCCC=CCCCC1(CC1)S(=O)(=O)NC2=O` [Compound 12] are 10 to 100 nM and ≤ 10 nM.
In the same order, the values of `CC[C@@H]1C[C@@]12NC(=O)[C@@H]1C[C@H](CN1C(=O)[C@@H](NC(=O)OC(C)(C)C)C(C)(C)C)Oc1nc3c(cccc3n1C(C)C)C1=NC(C(C)C)=C(CCC=CCCC3(CC3)S(=O)(=O)NC2=O)S1` [Compound 13] are ≥ 100 nM and ≤ 10 nM.
Take `CC[C@@H]1C[C@@]12NC(=O)[C@@H]1C[C@H](CN1C(=O)[C@@H](NC(=O)OC(C)(C)C)C(C)(C)C)Oc1nc3c(cccc3n1C(C)C)C(=O)NCCCCCCCC1(CC1)S(=O)(=O)NC2=O` [Compound 14]: the EC50 in test [1] was ≤ 10 nM. Moreover, the IC50 in test [2] was ≤ 10 nM.
Take `CC[C@@H]1C[C@@]12NC(=O)[C@@H]1C[C@H](CN1C(=O)[C@@H](NC(=O)OC(C)(C)C)C(C)(C)C)Oc1nc3c(cccc3n1C(C)C)C1=NC(C(C)C)=C(CCCCCCC3(CC3)S(=O)(=O)NC2=O)S1` [Compound 15]: in test [1], the EC50 was ≥ 100 nM. Also, the IC50 in test [2] is ≤ 10 nM.
In the same order, the values of `CC[C@@H]1C[C@@]12NC(=O)[C@@H]1C[C@H](CN1C(=O)[C@@H](NC(=O)OC(C)(C)C)C(C)(C)C)Oc1nc3c(cccc3n1C(C)C)C1=NC(C(C)C)=C(CCC/C=C/CCCC3(CC3)S(=O)(=O)NC2=O)S1` [Compound 101] are ≥ 100 nM and ≤ 10 nM.
On to `CC[C@@H]1C[C@@]12NC(=O)[C@@H]1C[C@H](CN1C(=O)[C@@H](NC(=O)OC(C)(C)C)C(C)(C)C)Oc1nc3c(cccc3n1C(C)C)C1=NC(C(C)C)=C(CCCCCCCCC3(CC3)S(=O)(=O)NC2=O)S1` [Compound 102], for which the EC50 in test [1] is ≥ 100 nM. This compound gave an IC50 in test [2] of 10 to 100 nM.
In the case of `CC[C@@H]1C[C@@]12NC(=O)[C@@H]1C[C@H](CN1C(=O)[C@@H](N)C(C)(C)C)Oc1nc3c(cccc3n1C(C)C)C1=NC(C(C)C)=C(CCC/C=C/CCCC3(CC3)S(=O)(=O)NC2=O)S1` [Compound 103], the EC50 in test [1] is ≥ 100 nM. In addition, the IC50 in test [2] was in the range of 10 to 100 nM.
In the same order, the values of `CC[C@@H]1C[C@@]12NC(=O)[C@@H]1C[C@H](CN1C(=O)[C@@H](N)C(C)(C)C)Oc1nc3c(cccc3n1C(C)C)C1=NC(C(C)C)=C(CCCCCCCCC3(CC3)S(=O)(=O)NC2=O)S1` [Compound 104] are ≥ 100 nM and 10 to 100 nM.
The matching figures for `CC[C@@H]1C[C@@]12NC(=O)[C@@H]1C[C@H](CN1C(=O)[C@@H](NC(=O)OC(C)(C)C)C(C)(C)C)Oc1nc3c(cccc3n1C(C)C)C1=NC(C(C)C)=C(CC/C=C/CCCCS(=O)(=O)NC2=O)S1` [Compound 105]: ≥ 100 nM and ≤ 10 nM.
Turning to `CC[C@@H]1C[C@@]12NC(=O)[C@@H]1C[C@H](CN1C(=O)[C@@H](NC(=O)OC(C)(C)C)C(C)(C)C)Oc1nc3c(cccc3n1C(C)C)C1=NC(C(C)C)=C(CC/C=C\CCCCS(=O)(=O)NC2=O)S1` [Compound 106], the EC50 in test [1] is ≥ 100 nM. The IC50 in test [2] fell in the range of 10 to 100 nM.
As for `CC[C@@H]1C[C@@]12NC(=O)[C@@H]1C[C@H](CN1C(=O)[C@@H](NC(=O)OC(C)(C)C)C(C)(C)C)Oc1nc3c(cccc3n1C(C)C)C1=NC(C(C)C)=C(CCCCCCCCS(=O)(=O)NC2=O)S1` [Compound 107], the EC50 in test [1] is ≥ 100 nM. In addition, in test [2], the IC50 fell in the range of 10 to 100 nM.
In the same order, the values of `CC[C@@H]1C[C@@]12NC(=O)[C@@H]1C[C@H](CN1C(=O)[C@@H](N)C(C)(C)C)Oc1nc3c(cccc3n1C(C)C)C1=NC(C(C)C)=C(CC/C=C\CCCCS(=O)(=O)NC2=O)S1` [Compound 108] are ≥ 100 nM and ≥ 100 nM.
The matching figures for `CC[C@@H]1C[C@@]12NC(=O)[C@@H]1C[C@H](CN1C(=O)[C@@H](N)C(C)(C)C)Oc1nc3c(cccc3n1C(C)C)C1=NC(C(C)C)=C(CC/C=C/CCCCS(=O)(=O)NC2=O)S1` [Compound 109]: ≥ 100 nM and ≥ 100 nM.
